Measurements published in the NIST ThermoML archive (doi:10.1021/je3007474).
Numbers after ± are expanded uncertainties.

What was measured:
[1] = xn = mol fraction of the nth substance listed; conditions: 101 kPa, Liquid, x2 = 0; for viscosity: Falling or rolling sphere viscometry; for mass density: Vibrating tube method
[2] = 101 kPa, Liquid; for viscosity: Falling or rolling sphere viscometry; for mass density: Vibrating tube method

C[S+](C)[O-] [dimethyl sulfoxide] + CCCCn1cc[n+](C)c1C.F[B-](F)(F)F
[1]
Conditions	mass density [kg/m3]	viscosity [mPa·s]
298.15 K	1095.74 ± 0.07	2.012 ± 0.025
303.15 K	1090.73 ± 0.07	1.843 ± 0.023
313.15 K	1080.69 ± 0.07	1.556 ± 0.019
323.15 K	1070.66 ± 0.06	1.337 ± 0.016
333.15 K	1060.63 ± 0.06	1.165 ± 0.014
343.15 K	1050.58 ± 0.06	1.028 ± 0.013
353.15 K	1040.51 ± 0.05	0.917 ± 0.011

CC#N [acetonitrile]
[2]
Conditions	mass density [kg/m3]	viscosity [mPa·s]
298.15 K	776.55 ± 0.15	0.37 ± 0.005
303.15 K	771.13 ± 0.15	0.354 ± 0.004
313.15 K	760.18 ± 0.15	0.327 ± 0.004
323.15 K	749.11 ± 0.16	0.302 ± 0.004
333.15 K	737.86 ± 0.16	0.281 ± 0.004
343.15 K	726.43 ± 0.17	0.262 ± 0.003

CCCCn1cc[n+](C)c1C.F[B-](F)(F)F [1-butyl-2,3-dimethylimidazolium tetrafluoroborate]
[2]
Conditions	mass density [kg/m3]	viscosity [mPa·s]
298.15 K	1193.19 ± 0.12	650 ± 56
303.15 K	1189.8 ± 0.12	447 ± 33
313.15 K	1183.02 ± 0.11	232.9 ± 12
323.15 K	1176.38 ± 0.11	132.8 ± 4.4
333.15 K	1169.82 ± 0.11	81.53 ± 1.5
343.15 K	1163.26 ± 0.11	53.99 ± 0.56
353.15 K	1156.71 ± 0.1	37.13 ± 0.46

CC#N [acetonitrile] + CCCCn1cc[n+](C)c1C.F[B-](F)(F)F
[1]
Conditions	mass density [kg/m3]	viscosity [mPa·s]
298.15 K	776.55 ± 0.15	0.37 ± 0.005
303.15 K	771.13 ± 0.15	0.354 ± 0.004
313.15 K	760.18 ± 0.15	0.327 ± 0.004
323.15 K	749.11 ± 0.16	0.302 ± 0.004
333.15 K	737.86 ± 0.16	0.281 ± 0.004
343.15 K	726.43 ± 0.17	0.262 ± 0.003

C[S+](C)[O-] [dimethyl sulfoxide]
[2]
Conditions	mass density [kg/m3]	viscosity [mPa·s]
298.15 K	1095.74 ± 0.07	2.012 ± 0.025
303.15 K	1090.73 ± 0.07	1.843 ± 0.023
313.15 K	1080.69 ± 0.07	1.556 ± 0.019
323.15 K	1070.66 ± 0.06	1.337 ± 0.016
333.15 K	1060.63 ± 0.06	1.165 ± 0.014
343.15 K	1050.58 ± 0.06	1.028 ± 0.013
353.15 K	1040.51 ± 0.05	0.917 ± 0.011
